From US8263044B2, “Stilbene like compounds as novel HDAC inhibitors” (Orchid Research Laboratories Limited, priority 2005, dated 2012) come the findings set out here.

One assay has as its system HCT 116 cells. Kind of assay: cells. The note with it: Homo sapiens, HCT-116, 48 h; for GI50: read-out: HCT116 GI50; for CC50: read-out: HCT116 LC50. On the procedure:
(§1) Experimental drugs are screened for anti-cancer activity in three cell lines for their GI50, TGI and LC50 values (using five concentrations for each compound). The cell lines are maintained in DMEM containing 10% fetal bovine serum. 96 well micro titer plates are inoculated with cells in 100 μL for 24 h at 37° C., 5% CO2, 95% air and 100% relative humidity. 5000 HCT 116 cells/well, 5000 NCIH 460 cells/well and 5000 U251 cells/well are plated. A separate plate with these cell lines is also inoculated to determine cell viability before the addition of the compounds (T0) (See Table I).
(§2) Following 24-hour incubation, experimental drugs are added to the 96 well plates. Each plate contains one of the above cell lines and the following in triplicate: five different concentrations (0.01, 0.1, 1, 10 and 100 μM) of four different compounds, appropriate dilutions of a cytotoxic standard and control (untreated) wells. Compounds are dissolved in DMSO to make 20 mM stock solutions on the day of drug addition and frozen at −20° C. Serial dilutions of these 20 mM stock solutions are made in complete growth medium such that 100 μL of these drug solutions in medium, of final concentrations equaling 0.01, 0.1, 1, 10 and 100 μM can be added to the cells in triplicate. […] (See Table I).
(§3) For T0 measurement, 24 hours after seeding the cells, 10 μL of 3-(4,5-Dimethyl-2-thiazolyl)-2,5-diphenyl-2H-tetrazolium (MTT) solution per well is added and incubation carried out for 3 hours at 37° C., 5% CO2, 95% air and 100% relative humidity, protected from light. Cells incubated with compounds for 48 hours are treated similarly except with the addition of 20 μL MTT solution per well and a subsequent incubation under the same conditions. After 3 hours of MTT incubation, well contents are aspirated carefully followed by addition of 150 μL DMSO per well. Plates are agitated to ensure solution of the formazan crystals in DMSO and absorbance read at 570 nm. (See Table I).
(§4) Percent growth is calculated for each compound's concentration relative to the control and zero measurement wells (T0; viability right before compound addition).
(§5) If a test well's O.D. value is lower than the T0 measurement for that cell line, then, % Growth=(test−zero)/zero×100

Assay [1] deals with MDAMB231/U251. Kind of assay: cells. The note with it: 48 h, read-out: MDAMB231/U251 GI50. The protocol:
as §1, §2, §3, §4, §5

The test system of another assay is NCIH 460 cells. Nature of the assay: cells. Particulars: Homo sapiens, NCI-H460, 48 h; for GI50: read-out: NCIH460 GI50; for CC50: read-out: NCIH460 LC50. On the procedure: as §1, §2, §3, §4, §5
The test system of assay [2] is NCIH460, HCT116, MDAMB231/U251. Kind of assay: Anti-cancer screen, mean GI50 over the cell lines. The class given is cell-based. The note with it: mean over the three cell lines; no unit in table. On the procedure: as §1, §2, §3
Percent growth is calculated for each compound's concentration relative to the control and zero measurement wells (T0; viability right before compound addition). […]

For assay [3], the system named is HDAC activity (Mouse Liver Extract). Nature of the assay: Histone Deacetylase (HDAC) Inhibition Assay using Boc-Lys (Ac)-AMC Substrate. The class given is biochemical. Particulars: mouse liver enzyme; for HDAC Inhibition 1 μM: inhibitor at 1 μM; for HDAC Inhibition 1 μM / HDAC Inhibition 10 μM: in % (unit assumed); for HDAC Inhibition 10 μM: inhibitor at 10 μM. The protocol: Histone Deacetylase (HDAC) Inhibition Assay using Boc-Lys (Ac)-AMC Substrate: Inhibition of HDAC has been implicated to modulate transcription and to induce apoptosis or differentiation in cancer cells. The fluorometric assay provides a fast and fluorescence based method that eliminates radioactivity, extractions or chromatography, as used in traditional assays. The assay based on two steps. First, the HDAC fluorometric substrate, which comprises an acetylated lysine side chain, is incubated with a sample containing HDAC activity (Mouse Liver Extract). Deacetylation of the substrate sensitizes the substrate, in the second step; treatment with the Trypsin stop solution produces a fluorophore that can be easily analyzed using fluorescence plate reader.
Assay was done in 96 well black microplate and total volume of the assay is 100 ul. Mouse liver enzyme is diluted 1:6 with HDAC buffer. Enzyme cocktail made of 10 ul of diluted enzyme and 30 ul of HDAC buffer. 40 ul of enzyme cocktail dispensed into each well. 10 ul of different concentrations of inhibitor added in to each well, except enzyme control well. Preincubated the plate at 30° C. for 5 minutes. The HDAC reaction is started by adding 50 ul of HDAC substrate (Boc-Lys (Ac)-AMC Substrate) solution. Incubated the plate at 30° C. for 30 minutes. Adding 100 ul of Trypsin stop solution stops the reaction. The plate is incubated again at 30° C. for 20-30 minutes. The release of AMC is monitored by measuring the fluorescence at excitation wavelength of 365 or 360 nm and emission wavelength of 440 or 460 nm. Buffer and substrate alone kept for blank subtraction. (Dennis Wegener et al, Anal. Biochem, 321, 2003, 202-208).

For assay [4], the system named is MDAMB231/U251. Kind of assay: cells. The note with it: 48 h, read-out: MDAMB231/U251 LC50.

In the case of `COc1cc(/C=C(\C(=O)NCCCCCC(=O)N(C)OC)c2ccc(O)cc2)cc(OC)c1OC` [Example 7, (2Z)-3-(3,4,5-Trimethoxyphenyl)-2-(4-hydroxyphenyl)-N-[6-(N,O dimethylamine)-6-oxohexyl]acrylamide], the GI50 in the assay with HCT 116 cells amounted to 0.98 µM; in the assay on MDAMB231/U251 [1] it was 0.8 µM; in the assay on NCIH 460 cells it was 0.01 µM; in assay [2], 0.6 µM. For the same compound, the figures for the CC50 with HCT 116 cells, in the assay with NCIH 460 cells and in the assay on MDAMB231/U251 [4] were > 100 µM, 10 µM and > 100 µM, respectively. Moreover, in assay [3], the “HDAC Inhibition 1 μM” value is 7.3. Moreover, the “HDAC Inhibition 10 μM” value in assay [3] stood at 3.8.
For the compound `Cc1ncsc1/C=C(/C(=O)NCCCCCC(=O)NO)c1cccs1` [Example 8, [(2Z)-3-(4-Methyl-1,3-thiazol-5-yl)-2-(2-thienyl))-N-[6-(hydroxyamino)-6-oxohexyl]acrylamide], the GI50 with HCT 116 cells was determined as 8 µM; in the assay on MDAMB231/U251 [1], 6 µM; in the assay with NCIH 460 cells it was 15 µM; in assay [2] it was 9.7 µM. Also, the CC50 in the assay with HCT 116 cells is > 100 µM; in the assay with NCIH 460 cells, > 100 µM; with MDAMB231/U251 [4], 96 µM. Further, in assay [3], the “HDAC Inhibition 1 μM” value was determined as 77.63. The “HDAC Inhibition 10 μM” value in assay [3] is reported as 99.67. This compound displayed an IC50 in assay [3] of 0.55 µM.
On to `COc1cc(/C=C(\C(=O)NCCCCCC(=O)NO)c2ccc([N+](=O)[O-])cc2)cc(OC)c1` [Example 9, (2Z)-3-(3,5-Dimethoxyphenyl)-2-(4-nitrophenyl)-N-[6-(hydroxyamino)-6-oxohexyl]acrylamide], for which the GI50 in the assay on HCT 116 cells came to 20 µM; with MDAMB231/U251 [1], 28 µM; with NCIH 460 cells, 45 µM; in assay [2] it was 31 µM. Also, the CC50 amounted to 95 µM in the assay with HCT 116 cells, 100 µM in the assay with NCIH 460 cells and 90 µM in the assay with MDAMB231/U251 [4]. In addition, the “HDAC Inhibition 1 μM” value in assay [3] is 65.5. For the same compound, the “HDAC Inhibition 10 μM” value in assay [3] is listed as 98.28. Moreover, the midpoint of inhibition in assay [3], the IC50, lay at 0.7 µM.
Consider `O=C(CCCCCNC(=O)/C(=C\c1ccc(Br)s1)c1ccc(Br)cc1)NO` [Example 13, (2Z)-3-(5-Bromo-2-thienyl)-2-(4-bromophenyl)-N-[6-(hydroxyamino)-6-oxohexyl]acrylamide], for which the GI50 stood at 5 µM in the assay on HCT 116 cells, 3 µM with MDAMB231/U251 [1], 7 µM with NCIH 460 cells and 5 µM in assay [2]. The values for the CC50 in the assay on HCT 116 cells, with NCIH 460 cells and in the assay with MDAMB231/U251 [4] were 70 µM, 75 µM and 80 µM, respectively. In addition, the “HDAC Inhibition 1 μM” value in assay [3] stood at 53.83. Moreover, in assay [3], the “HDAC Inhibition 10 μM” value was determined as 89.18. The compound further returned an IC50 in assay [3] of 2.95 µM.
`O=C(CCCCCNC(=O)/C(=C\c1ccncc1)c1ccc(F)cc1)NO` [Example 14, (2Z)-3-(4-Pyridine)-2-(4-fluorophenyl)-N-[6-(hydroxyamino)-6-oxohexyl]acrylamide]: the GI50 (with HCT 116 cells; with MDAMB231/U251 [1]; in the assay with NCIH 460 cells; in assay [2]) was > 100 µM throughout. Also, the CC50 in the assay with HCT 116 cells, in the assay with NCIH 460 cells and in the assay on MDAMB231/U251 [4] was > 100 µM throughout. Besides, the “HDAC Inhibition 1 μM” value in assay [3] is given as 21.1. In addition, the “HDAC Inhibition 10 μM” value in assay [3] is 35.4.
With `O=C(CCCCCNC(=O)/C(=C\c1ccncc1)c1ccc(F)cc1)Nc1ccc(O)cc1[N+](=O)[O-]` [Example 15], the GI50 (with HCT 116 cells; with MDAMB231/U251 [1]; in the assay on NCIH 460 cells; in assay [2]) was > 100 µM throughout. Moreover, the CC50 with HCT 116 cells, with NCIH 460 cells and in the assay with MDAMB231/U251 [4] was > 100 µM throughout. In addition, the “HDAC Inhibition 1 μM” value in assay [3] is on record as 1.7. For the same compound, the “HDAC Inhibition 10 μM” value in assay [3] was 4.
Turning to `CSc1ccc(/C=C(\C(=O)NCCCCCC(=O)NO)c2ccc(F)cc2)cc1` [Example 16, (2Z)-3-(4-Thiomethylphenyl)-2-(4-fluorophenyl)-N-[6-(hydroxyamine)-6-oxohexyl]acrylamide], the GI50 turned out to be 1.9 µM in the assay on HCT 116 cells, 0.15 µM in the assay on MDAMB231/U251 [1], 0.01 µM in the assay with NCIH 460 cells and 0.7 µM in assay [2]. In addition, the CC50 in the assay on HCT 116 cells came out at 32 µM; in the assay on NCIH 460 cells, 24 µM; with MDAMB231/U251 [4], 90 µM. The “HDAC Inhibition 1 μM” value in assay [3] was 68. Further, the “HDAC Inhibition 10 μM” value in assay [3] is recorded as 83. This compound returned an IC50 in assay [3] of 0.061 µM.
With `CSc1ccc(/C=C(\C(=O)NCCCCCC(=O)Nc2ncc([N+](=O)[O-])s2)c2ccc(F)cc2)cc1` [Example 17, (2Z)-3-(4-Thiomethylphenyl)-2-(4-fluorophenyl)-N-[6-(5-nitro-2-thiazoleamine)-6-oxohexyl]acrylamide], the GI50 turned out to be 0.03 µM in the assay on HCT 116 cells, 0.71 µM with MDAMB231/U251 [1], 0.25 µM in the assay on NCIH 460 cells and 0.3 µM in assay [2]. For the same compound, the CC50 in the assay on HCT 116 cells, in the assay with NCIH 460 cells and in the assay with MDAMB231/U251 [4] was > 100 µM each time. For the same compound, in assay [3], the “HDAC Inhibition 1 μM” value came to 0.7. Also, the “HDAC Inhibition 10 μM” value in assay [3] was determined as 2.3.
Turning to `CON(C)C(=O)CCCCCNC(=O)/C(=C\c1ccc(SC)cc1)c1ccc(F)cc1` [Example 18, (2Z)-3-(4-Thiomethylphenyl)-2-(4-fluorophenyl)-N-[6-(N,O dimethylamine)-6-oxohexyl]acrylamide], the GI50 in the assay on HCT 116 cells is 55 µM; in the assay on MDAMB231/U251 [1] it was 0.8 µM; in the assay on NCIH 460 cells, 0.5 µM; in assay [2] it was 18.8 µM. Also, the CC50 with HCT 116 cells, in the assay on NCIH 460 cells and with MDAMB231/U251 [4] was > 100 µM throughout. The “HDAC Inhibition 1 μM” value in assay [3] is reported as 2.26. Further, the “HDAC Inhibition 10 μM” value in assay [3] came to 0.89.
Consider `CSc1ccc(/C=C(\C(=O)NCCCCCC(=O)Nc2nc3cc(C)ccc3s2)c2ccc(F)cc2)cc1` [Example 19, (2Z)-3-(4-Thiomethylphenyl)-2-(4-fluorophenyl)-N-[6-(5-methyl-2-benzothiazoleamine)-6-oxohexyl]acrylamide], for which the GI50 in the assay on HCT 116 cells is > 100 µM; in the assay with MDAMB231/U251 [1], 5.8 µM; in the assay with NCIH 460 cells it was 8 µM; in assay [2], 6.9 µM. Also, the CC50 with HCT 116 cells, in the assay with NCIH 460 cells and in the assay with MDAMB231/U251 [4] was > 100 µM in each case. Besides, in assay [3], the “HDAC Inhibition 1 μM” value is listed as −22.2. Moreover, in assay [3], the “HDAC Inhibition 10 μM” value stood at 10.2.
As to `CSc1ccc(/C=C(\C(=O)NCCCCCC(=O)Nc2nccs2)c2ccc(F)cc2)cc1` [Example 20, (2Z)-3-(4-Thiomethylphenyl)-2-(4-fluorophenyl)-N-[6-(2-thiazoleamine)-6-oxohexyl]acrylamide], the GI50 with HCT 116 cells is > 100 µM; with MDAMB231/U251 [1], 3 µM; with NCIH 460 cells it was 1 µM; in assay [2] it was 2 µM. In addition, the CC50 in the assay with HCT 116 cells, in the assay with NCIH 460 cells and in the assay with MDAMB231/U251 [4] was > 100 µM in each case. The “HDAC Inhibition 10 μM” value in assay [3] is on record as 5.57.
